This experiment concerns the target T1, Eimeria tenella aldolase 2 (EtALD2), fructose-1,6-bisphosphate aldolase (Eimeria tenella, UniProt U6KYI1).
T1 sequence (U6KYI1 1-368): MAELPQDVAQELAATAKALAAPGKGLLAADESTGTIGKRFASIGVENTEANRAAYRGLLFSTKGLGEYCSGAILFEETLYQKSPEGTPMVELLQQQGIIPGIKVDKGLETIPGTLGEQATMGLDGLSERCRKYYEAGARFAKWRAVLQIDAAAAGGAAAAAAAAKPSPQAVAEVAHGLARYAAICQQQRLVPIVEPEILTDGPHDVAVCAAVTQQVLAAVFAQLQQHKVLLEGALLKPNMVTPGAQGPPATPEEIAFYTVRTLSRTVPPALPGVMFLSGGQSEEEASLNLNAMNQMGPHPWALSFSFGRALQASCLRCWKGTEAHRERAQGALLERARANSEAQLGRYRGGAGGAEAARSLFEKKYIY
Type of experiment: biochemical.

Structures are written as SMILES.

For the compound `O=c1c(O)c(-c2ccc(O)cc2O)oc2cc(O)cc(O)c12` [morin], the IC50 (commonly the concentration that gives 50% inhibition) worked out at 10.4 µM.
